Reference: paper PMC3005002 (Glia, 2011)
pKi: −log10 of the molar value.

Molecular target: T1, NCC69 (HA:NCC69) (Drosophila melanogaster, UniProt Q9VTW8)
T1 sequence (Q9VTW8 1-1171): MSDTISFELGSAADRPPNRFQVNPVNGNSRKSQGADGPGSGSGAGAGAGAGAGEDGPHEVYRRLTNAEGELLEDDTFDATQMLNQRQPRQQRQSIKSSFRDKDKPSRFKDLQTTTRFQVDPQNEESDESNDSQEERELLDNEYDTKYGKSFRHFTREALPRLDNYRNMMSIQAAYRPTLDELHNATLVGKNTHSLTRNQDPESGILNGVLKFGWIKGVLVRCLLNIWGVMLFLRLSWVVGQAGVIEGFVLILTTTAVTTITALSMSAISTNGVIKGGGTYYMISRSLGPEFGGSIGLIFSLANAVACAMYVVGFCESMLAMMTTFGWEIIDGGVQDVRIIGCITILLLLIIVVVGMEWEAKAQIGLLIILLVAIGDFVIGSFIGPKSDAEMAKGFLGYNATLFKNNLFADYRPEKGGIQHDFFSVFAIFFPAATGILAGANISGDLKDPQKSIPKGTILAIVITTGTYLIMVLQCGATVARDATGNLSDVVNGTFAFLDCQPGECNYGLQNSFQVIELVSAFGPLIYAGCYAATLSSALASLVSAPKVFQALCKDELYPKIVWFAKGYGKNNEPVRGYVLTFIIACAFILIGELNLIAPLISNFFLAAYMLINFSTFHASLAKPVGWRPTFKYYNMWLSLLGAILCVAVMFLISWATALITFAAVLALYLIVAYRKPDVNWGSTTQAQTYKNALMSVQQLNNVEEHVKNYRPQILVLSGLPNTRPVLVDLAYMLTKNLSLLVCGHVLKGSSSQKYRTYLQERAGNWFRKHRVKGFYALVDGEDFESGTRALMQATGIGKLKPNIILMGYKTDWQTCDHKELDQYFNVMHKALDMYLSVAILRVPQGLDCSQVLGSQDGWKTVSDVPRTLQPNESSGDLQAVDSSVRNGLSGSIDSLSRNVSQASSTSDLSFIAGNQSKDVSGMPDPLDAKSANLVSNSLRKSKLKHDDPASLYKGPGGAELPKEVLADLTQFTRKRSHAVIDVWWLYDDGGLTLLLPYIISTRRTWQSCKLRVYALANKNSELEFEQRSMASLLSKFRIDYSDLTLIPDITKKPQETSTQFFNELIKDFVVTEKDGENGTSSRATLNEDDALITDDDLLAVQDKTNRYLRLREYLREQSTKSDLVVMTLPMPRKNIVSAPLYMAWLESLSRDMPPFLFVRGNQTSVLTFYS
Assay: […] influx inhibition in stably transfected SL2 cells
Type: cell-based

## CCCCNc1cc(C(=O)O)cc(S(N)(=O)=O)c1Oc1ccccc1 [bumetanide]
  pKi: 7.31
